Reference: US20060211724A1, “Hiv integrase inhibitors” (priority 2003, published 2006)

biological target: T1, Recombinant His-tagged HIV-1 integrase (Human immunodeficiency virus type 1 group M subtype B, UniProt P12497, C1427S/F1332K); assay: Enzymatic integrase assay (oligonucleotide-based DNA strand transfer, ELISA); type: biochemical; settings: not given
T1 construct: Recombinant His-tagged HIV-1 integrase; His; made in house; host or cells: E. coli BL21(DE3)
Experimental: Enzymatic Integrase Assay
The activity of HIV-integrase was determined using an oligonucleotide-based assay in which the DNA strand transfer by preformed complexes of integrase and processed DNA was measured by means of an enzyme-linked immunosorbent assay (ELISA) in microtiter plate format. Recombinant His-tagged HIV-1 integrase was produced in the E. coli strain BL21(DE3) from the plasmid pINSD.His.sol (available from NTH) after induction with isopropyl-β-D-thiogalactopyranoside (IPTG) according to described procedures (cfr. ref. Jenkins et al., “A soluble active mutant of HIV-1 integrase”, J. Biol. Chem. 271 ([…]), 7712-7718). HPLC-purified oligodeoxynucleotides were obtained from Proligo, and used for preparation of the viral DNA substrate and target DNA.
INb-1C is 5′-biotinylated, INT5 and INT6 are at the 3′-end labeled with FITC. INb-1C and IN-1NC correspond to the U5 end of the HIV-1 LTR. The DNA substrate for the integrase reactions was made by annealing INb-1C and IN-1NC. An equimolar mixture of INb-1C and IN-1NC was heated shortly at 95° C. in the presence of 100 mM NaCl and allowed to cool slowly to room temperature. In the same way, INT5 and INT6 were annealed to produce a target DNA molecule.
The integration strand transfer reactions were performed in the following way:
20 nM biotinylated DNA substrate INb-1C/IN-1NC was pre-incubated with 300 nM HIV-integrase at 37° C. for 5 min, to allow the cleavage reaction to occur. The candidate compounds and 50 nM target DNA INT5/INT6 were added to the reaction mix containing 20 mM Hepes pH 7.5, 25 mM NaCl, 5 mM MnCl2, 2 mM DTT, and 50 μg/ml BSA, and incubated for 2 h at 37° C. The reaction mix was transferred to streptavidin-coated plates (Exiqon), which were prewashed (three times) with 5×SSCT, and incubated for 1 h at room temperature to allow capture of the biotinylated viral DNA/target DNA complex. Plates were washed three times with 2×SSCT buffer, and anti-FITC POD-coupled antibody (Roche) was added and incubated for 1 h at room temperature to detect integrated FITC-labeled target DNA. After a final washing step with PBST (5 times), BM chemiluminescent POD-substrate (Roche) was added, and luminescence was read out.
The table below list the pIC50 values for those compounds tested in the enzymatic integrase assay. The pIC50 is expressed in Molar units and is the value according to the following formula: pIC50=−log IC50
wherein the IC50 value is the drug concentration at which 50% of the enzyme or viral activity is inhibited.

Row | SMILES | IC50
1 | O=C1c2c(c(O)c3nccnc3c2O)C(=O)N1C1CCCC1 [Compound 32, 7-Cyclopentyl-5,9-dihydroxy-pyrrolo[3,4-g]quinoxaline-6,8-dione] | 10500 nM
2 | O=C1c2c(c(O)c3nccnc3c2O)C(=O)N1Cc1cccc2ccccc12 [Compound 27, 5,9-Dihydroxy-7-naphthalen-1-ylmethyl-pyrrolo[3,4-g]quinoxaline-6,8-dione] | 1410 nM
3 | Cc1ccc2c(O)c3c(c(O)c2n1)C(=O)N(Cc1cccc(F)c1)C3=O [Compound 21, 7-(3-Fluoro-benzyl)-5,9-dihydroxy-2-methyl-pyrrolo[3,4-g]quinoline-6,8-dione] | 871 nM
4 | O=C1c2c(c(O)c3ccccc3c2O)C(=O)N1Cc1ccc(F)cc1 [Compound 11, 2-(4-Fluoro-benzyl)-4,9-dihydroxy-benzo[f]isoindole-1,3-dione] | > 100000 nM
5 | CS(=O)(=O)c1ccc(CN2C(=O)c3c(c(O)c4nccnc4c3O)C2=O)cc1 [Compound 34, 5,9-Dihydroxy-7-(4-methanesulfonyl-benzyl)-pyrrolo[3,4-g]quinoxaline-6,8-dione] | 8710 nM
6 | O=C1c2c(c(O)c3[nH]cnc3c2O)C(=O)N1Cc1ccc2c(c1)OCO2 [Compound 39, 6-Benzo[1,3]dioxol-5-ylmethyl-4,8-dihydroxy-1H-1,3,6-triaza-s-indacene-5,7-dione] | 2040 nM
7 | O=C1c2c(c(O)c3nccnc3c2O)C(=O)N1Cc1ccncc1 [Compound 29, 5,9-Dihydroxy-7-pyridin-4-ylmethyl-pyrrolo[3,4-g]quinoxaline-6,8-dione] | 6760 nM
8 | CC(c1ccccc1)N1C(=O)c2c(c(O)c3nccnc3c2O)C1=O (stereo not shown) [Compound 25, 5,9-Dihydroxy-7-(1-phenyl-ethyl)-pyrrolo[3,4-g]quinoxaline-6,8-dione] | 2040 nM
9 | COc1ccc(CN2C(=O)c3c(c(O)c4nc(C)ccc4c3O)C2=O)cc1 [Compound 23, 5,9-Dihydroxy-7-(4-methoxy-benzyl)-2-methyl-pyrrolo[3,4-g]quinoline-6,8-dione] | 1480 nM
10 | Cc1ccc(CN2C(=O)c3c(c(O)c4nccnc4c3O)C2=O)cc1 [Compound 3, 5,9-Dihydroxy-7-(4-methyl-benzyl)-pyrrolo[3,4-g]quinoxaline-6,8-dione] | 1580 nM
11 | Cc1ccc2c(O)c3c(c(O)c2n1)C(=O)N(c1ccccc1)C3=O [Compound 30, 5,9-Dihydroxy-2-methyl-7-phenyl-pyrrolo[3,4-g]quinoline-6,8-dione] | 24000 nM
12 | Cc1ccc2c(O)c3c(c(O)c2n1)C(=O)N(CCc1ccccc1)C3=O [Compound 19, 5,9-Dihydroxy-2-methyl-7-phenethyl-pyrrolo[3,4-g]quinoline-6,8-dione] | 4170 nM
13 | O=C1c2c(c(O)c3nccnc3c2O)C(=O)N1Cc1cccc(CN2C(=O)c3c(c(O)c4nccnc4c3O)C2=O)c1 [Compound 18, 7-[3-(5,9-Dihydroxy-6,8-dioxo-6,8-dihydro-pyrrolo[3,4-g]quinoxalin-7-ylmethyl)-benzyl]-5,9-dihydroxy-pyrrolo[3,4-g]quinoxaline-6,8-dione] | 7590 nM
14 | Cc1ccc2c(O)c3c(c(O)c2n1)C(=O)N(Cc1ccc(F)cc1)C3=O [Compound 22, 7-(4-Fluoro-benzyl)-5,9-dihydroxy-2-methyl-pyrrolo[3,4-g]quinoline-6,8-dione] | 398 nM
15 | O=C1c2c(c(O)c3nccnc3c2O)C(=O)N1CCc1ccccc1 [Compound 14, 5,9-Dihydroxy-7-phenethyl-pyrrolo[3,4-g]quinoxaline-6,8-dione] | 2040 nM
16 | CC(C)CCOc1c2c(c(O)c3nccnc13)C(=O)N(Cc1ccc3c(c1)OCO3)C2=O [Compound 37, 7-Benzo[1,3]dioxol-5-ylmethyl-5-hydroxy-9-(3-methyl-butoxy)-pyrrolo[3,4-g]quinoxaline-6,8-dione] | 1480 nM
17 | O=C1c2c(c(O)c3nccnc3c2O)C(=O)N1c1ccc(F)cc1 [Compound 33, 7-(4-Fluoro-phenyl)-5,9-dihydroxy-pyrrolo[3,4-g]quinoxaline-6,8-dione] | 21900 nM
18 | O=C1c2c(c(O)c3nccnc3c2O)C(=O)N1Cc1ccc(Br)cc1 [Compound 4, 7-(4-Bromo-benzyl)-5,9-dihydroxy-pyrrolo[3,4-g]quinoxaline-6,8-dione] | 219 nM
19 | O=C1c2c(c(O)c3nccnc3c2O)C(=O)N1Cc1ccc(Oc2ccccc2)cc1 [Compound 7, 5,9-Dihydroxy-7-(4-phenoxy-benzyl)-pyrrolo[3,4-g]quinoxaline-6,8-dione] | 4900 nM
20 | CC(c1ccccc1)N1C(=O)c2c(c(O)c3ccccc3c2O)C1=O (stereo not shown) [Compound 42, 4,9-Dihydroxy-2-(1-phenyl-ethyl)-benzo[f]isoindole-1,3-dione] | > 100000 nM
21 | O=C1c2c(c(OCc3ccccc3)c3nccnc3c2O)C(=O)N1Cc1ccc2c(c1)OCO2 [Compound 31, 7-Benzo[1,3]dioxol-5-ylmethyl-5-benzyloxy-9-hydroxy-pyrrolo[3,4-g]quinoxaline-6,8-dione] | > 100000 nM
22 | O=C1c2c(c(O)c3nccnc3c2O)C(=O)N1Cc1cccc(F)c1 [Compound 16, 7-(3-Fluoro-benzyl)-5,9-dihydroxy-pyrrolo[3,4-g]quinoxaline-6,8-dione] | 562 nM
23 | C#CCOc1c2c(c(O)c3nccnc13)C(=O)N(Cc1ccc3c(c1)OCO3)C2=O [Compound 36, 7-Benzo[1,3]dioxol-5-ylmethyl-5-hydroxy-9-prop-2-ynyloxy-pyrrolo[3,4-g]quinoxaline-6,8-dione] | 18200 nM
24 | O=C1c2c(c(O)c3nccnc3c2O)C(=O)N1CC1CCCCC1 [Compound 26, 7-Cyclohexylmethyl-5,9-Dihydroxy-pyrrolo[3,4-g]quinoxaline-6,8-dione] | 2190 nM
25 | Cc1ccc2c(O)c3c(c(O)c2n1)C(=O)N(C(C)c1ccccc1)C3=O (stereo not shown) [Compound 8, 5,9-Dihydroxy-2-methyl-7-(1-phenyl-ethyl)-pyrrolo[3,4-g]quinoline-6,8-dione] | 10700 nM
26 | O=C1c2c(c(O)c3ncccc3c2O)C(=O)N1CCc1ccccc1 [Compound 24, 5,9-Dihydroxy-7-phenethyl-pyrrolo[3,4-g]quinoline-6,8-dione] | 2510 nM
27 | O=C1c2c(c(O)c3nccnc3c2O)C(=O)N1c1ccc2c(c1)OCO2 [Compound 10, 7-Benzo[1,3]dioxol-5-yl-5,9-dihydroxy-pyrrolo[3,4-g]quinoxaline-6,8-dione] | 10000 nM
28 | O=C1c2c(c(O)c3c(ncn3Cc3ccccc3)c2O)C(=O)N1Cc1ccc2c(c1)OCO2 [Compound 38, 6-Benzo[1,3]dioxol-5-ylmethyl-1-benzyl-4,8-dihydroxy-1H-1,3,6-triaza-s-indacene-5,7-dione] | 479 nM
29 | COc1ccc(CN2C(=O)c3c(c(O)c4nccnc4c3O)C2=O)cc1 [Compound 17, 5,9-Dihydroxy-7-(4-methoxy-benzyl)-pyrrolo[3,4-g]quinoxaline-6,8-dione] | 562 nM
30 | O=C1c2c(c(O)c3ncccc3c2O)C(=O)N1Cc1ccc2c(c1)OCO2 [Compound 5, 7-Benzo[1,3]dioxol-5-ylmethyl-5,9-dihydroxy-pyrrolo[3,4-g]quinoline-6,8-dione] | 5620 nM

same assay, conditions: pIC50=−log IC50, expressed in Molar units; strand transfer, 5 mM MnCl2, 2 h at 37° C.

Row | SMILES | pIC50
31 | CCOC(=O)C(=O)Oc1c2c(c(O)c3nccnc13)CN(Cc1ccc3c(c1)OCO3)C2 [Compound 6, Oxalic acid 7-benzo[1,3]dioxol-5-ylmethyl-9-hydroxy-6,8-dihydro-6H-pyrrolo[3,4-g]quinoxalin-5-yl ester ethyl ester] | 5.50
